“And” between values parts separate entries of the source, which are not always exact repeats. Identical values can stand only once. Values belong to the compound of their own block, whether it stands above or below them.
Experiments:
[1] = target: T1, human GPR84-Gαi2 fusion protein (Homo sapiens, UniProt Q9NQS5); test: [^35S]GTPγS binding assay, membranes of Flp-In TREx 293 cells expressing human GPR84-Gαi2; type: biochemical; conditions: for pA2: Gaddum/Schild analysis, shifts in potency of 2-HTP, mean ± SEM; for Gaddum/Schild slope: Schild plots versus 2-HTP
T1 sequence (Q9NQS5 whole entry, the tested form may be a part): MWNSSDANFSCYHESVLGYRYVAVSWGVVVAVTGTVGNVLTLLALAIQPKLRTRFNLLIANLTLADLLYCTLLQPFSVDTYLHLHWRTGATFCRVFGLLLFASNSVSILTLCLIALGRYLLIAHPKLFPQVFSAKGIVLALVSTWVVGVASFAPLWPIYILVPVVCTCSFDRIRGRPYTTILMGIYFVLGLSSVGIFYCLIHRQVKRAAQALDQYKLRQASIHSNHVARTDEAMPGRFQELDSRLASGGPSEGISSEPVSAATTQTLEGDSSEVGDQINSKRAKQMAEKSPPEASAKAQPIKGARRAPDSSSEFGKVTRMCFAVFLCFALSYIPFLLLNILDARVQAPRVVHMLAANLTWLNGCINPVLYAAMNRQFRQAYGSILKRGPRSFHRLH
T1 sequence (P04899 2-355, further chain): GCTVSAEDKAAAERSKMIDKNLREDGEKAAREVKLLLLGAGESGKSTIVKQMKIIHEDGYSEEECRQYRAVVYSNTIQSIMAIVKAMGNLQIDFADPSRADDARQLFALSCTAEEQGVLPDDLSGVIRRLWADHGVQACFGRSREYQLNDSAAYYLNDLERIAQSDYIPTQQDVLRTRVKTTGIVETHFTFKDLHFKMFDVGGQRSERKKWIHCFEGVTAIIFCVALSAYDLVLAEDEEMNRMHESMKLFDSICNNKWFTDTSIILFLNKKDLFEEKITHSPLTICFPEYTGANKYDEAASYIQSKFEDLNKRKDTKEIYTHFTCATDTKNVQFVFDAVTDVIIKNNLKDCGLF
Protocol: (§1) All data are presented as means ± SEM of at least three independent experiments. Data analysis and curve fitting was carried out using the GraphPad Prism software package version 8 (GraphPad, San Diego). […] In case of inhibition experiments with antagonists, an equivalent analysis was followed to fit an inverse sigmoidal curve. To perform the statistical analysis of curve parameters, data from multiple experiments were fitted independently and resulting curve fit values were analyzed with indicated tests. Antagonism experiments carried out with multiple defined concentrations of antagonist were fit to a global Gaddum/Schild EC50 shift equation to estimate pA2 values for the antagonist. For radioligand binding data, saturation binding curves were generated by fitting the specific binding, which was obtained by subtracting nonspecific from total binding, to a one site specific binding model that allows calculation of Kd values for the radioligand at wild-type and mutant receptors.

[2] = system: mouse GPR84-Gαi2 fusion protein; test: [^35S]GTPγS binding assay, membranes of Flp-In TREx 293 cells expressing mouse GPR84-Gαi2; type: biochemical
Protocol: (§2) All data are presented as means ± SEM of at least three independent experiments. Data analysis and curve fitting was carried out using the GraphPad Prism software package version 8 (GraphPad, San Diego). For functional assays the concentration–response data were plotted on a log axis, with the untreated vehicle control plotted at 1 log unit lower than the lowest ligand concentration and fitted to a three parameter sigmoidal curve with the Hill slope constrained to equal 1. In case of inhibition experiments with antagonists, an equivalent analysis was followed to fit an inverse sigmoidal curve. To perform the statistical analysis of curve parameters, data from multiple experiments were fitted independently and resulting curve fit values were analyzed with indicated tests. Antagonism experiments carried out with multiple defined concentrations of antagonist were fit to a global Gaddum/Schild EC50 shift equation to estimate pA2 values for the antagonist. For radioligand binding data, saturation binding curves were generated by fitting the specific binding, which was obtained by subtracting nonspecific from total binding, to a one site specific binding model that allows calculation of Kd values for the radioligand at wild-type and mutant receptors.

macaque GPR84 = macaque GPR84 (Macaca mulatta, UniProt F6W0J1); test: cAMP regulation assay in CHO cells expressing macaque GPR84; type: cell-based; conditions: versus EC80 of 6-OAU
Sequence of macaque GPR84 (F6W0J1 1-396): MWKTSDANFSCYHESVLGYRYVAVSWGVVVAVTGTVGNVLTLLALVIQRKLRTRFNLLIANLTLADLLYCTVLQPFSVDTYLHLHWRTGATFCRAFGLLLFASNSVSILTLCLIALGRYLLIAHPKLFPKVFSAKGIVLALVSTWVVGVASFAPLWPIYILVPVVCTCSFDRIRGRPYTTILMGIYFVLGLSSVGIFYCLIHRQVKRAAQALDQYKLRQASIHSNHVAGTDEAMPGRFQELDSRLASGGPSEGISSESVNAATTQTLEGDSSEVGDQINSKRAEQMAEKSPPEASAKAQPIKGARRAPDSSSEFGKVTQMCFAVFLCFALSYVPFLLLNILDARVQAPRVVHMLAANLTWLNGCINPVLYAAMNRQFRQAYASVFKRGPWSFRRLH

dog GPR84 = target: T2, dog GPR84 (Canis lupus familiaris, UniProt A0A8I3P3M6); test: cAMP regulation assay in CHO cells expressing dog GPR84; type: cell-based; conditions: versus EC80 of 6-OAU
T2 construct: expressed in transfected cells
T2 sequence (A0A8I3P3M6 1-393): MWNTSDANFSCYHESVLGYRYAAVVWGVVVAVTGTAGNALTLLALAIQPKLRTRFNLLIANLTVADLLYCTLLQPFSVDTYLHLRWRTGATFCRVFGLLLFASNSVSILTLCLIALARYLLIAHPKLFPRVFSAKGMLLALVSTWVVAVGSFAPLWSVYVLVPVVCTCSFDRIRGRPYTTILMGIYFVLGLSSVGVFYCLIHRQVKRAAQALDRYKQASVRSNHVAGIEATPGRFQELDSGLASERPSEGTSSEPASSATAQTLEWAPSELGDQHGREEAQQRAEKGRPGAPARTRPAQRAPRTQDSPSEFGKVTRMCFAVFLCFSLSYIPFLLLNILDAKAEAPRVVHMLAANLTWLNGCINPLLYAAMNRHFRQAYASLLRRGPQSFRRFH

pig GPR84 = target: T3, pig GPR84 (Sus scrofa, UniProt I6WJ99); test: cAMP regulation assay in CHO cells expressing pig GPR84; type: cell-based; conditions: versus EC80 of 6-OAU
T3 construct: expressed in transfected cells
T3 sequence (I6WJ99 1-396): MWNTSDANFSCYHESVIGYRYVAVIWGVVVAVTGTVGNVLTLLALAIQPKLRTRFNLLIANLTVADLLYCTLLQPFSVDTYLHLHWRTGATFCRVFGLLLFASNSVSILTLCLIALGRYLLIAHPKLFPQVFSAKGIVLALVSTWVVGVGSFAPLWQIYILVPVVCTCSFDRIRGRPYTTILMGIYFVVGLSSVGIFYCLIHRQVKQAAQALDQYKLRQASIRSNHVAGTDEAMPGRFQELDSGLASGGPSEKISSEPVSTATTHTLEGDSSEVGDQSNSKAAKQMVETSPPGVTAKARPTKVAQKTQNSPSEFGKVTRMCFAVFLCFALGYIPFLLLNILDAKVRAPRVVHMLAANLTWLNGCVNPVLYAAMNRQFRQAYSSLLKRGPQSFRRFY

rat GPR84 = target: T4, rat GPR84 (Rattus norvegicus, UniProt D4ACK0); test: cAMP regulation assay in CHO cells expressing rat GPR84; type: cell-based; conditions: versus EC80 of 6-OAU
T4 construct: expressed in transfected cells
T4 sequence (D4ACK0 1-396): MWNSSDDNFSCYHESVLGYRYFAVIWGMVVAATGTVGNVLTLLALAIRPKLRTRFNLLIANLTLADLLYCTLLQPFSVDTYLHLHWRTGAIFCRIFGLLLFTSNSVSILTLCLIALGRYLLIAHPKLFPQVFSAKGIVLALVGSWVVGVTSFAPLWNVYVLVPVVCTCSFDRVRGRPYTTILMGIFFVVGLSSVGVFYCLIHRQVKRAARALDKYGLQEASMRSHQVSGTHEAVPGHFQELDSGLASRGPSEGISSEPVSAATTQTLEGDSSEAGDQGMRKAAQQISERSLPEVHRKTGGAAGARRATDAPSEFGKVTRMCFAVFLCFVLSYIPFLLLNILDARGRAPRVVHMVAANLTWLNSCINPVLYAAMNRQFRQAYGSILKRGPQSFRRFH

mouse GPR84 = target: T5, mouse GPR84 (Mus musculus, UniProt Q8CIM5); test: cAMP regulation assay in CHO cells expressing mouse GPR84; type: cell-based; conditions: versus EC80 of 6-OAU
T5 construct: expressed in transfected cells
T5 sequence (Q8CIM5 whole entry): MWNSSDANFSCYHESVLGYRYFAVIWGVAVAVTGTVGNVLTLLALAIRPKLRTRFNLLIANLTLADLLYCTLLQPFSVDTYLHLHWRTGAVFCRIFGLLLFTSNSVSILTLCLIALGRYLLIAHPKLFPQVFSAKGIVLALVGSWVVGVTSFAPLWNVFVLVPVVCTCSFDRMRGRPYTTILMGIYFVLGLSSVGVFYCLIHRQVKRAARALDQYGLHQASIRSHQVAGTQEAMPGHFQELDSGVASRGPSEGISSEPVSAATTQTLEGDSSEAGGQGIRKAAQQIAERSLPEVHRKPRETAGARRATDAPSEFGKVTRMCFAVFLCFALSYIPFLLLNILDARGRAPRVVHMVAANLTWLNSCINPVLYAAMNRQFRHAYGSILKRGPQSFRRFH

[3] = system: Ala^102Thr, Gly^363Ser human GPR84; test: [^35S]GTPγS binding assay, Ala102Thr-Gly363Ser human GPR84 mutant; type: biochemical
Protocol: (§3) The Stratagene QuikChange method (Stratagene, Agilent Technologies, Santa Clara, CA) was used to introduce alterations into FLAG-human GPR84-Gαi2 or FLAG-mouse GPR84-Gαi2. Primers utilized for mutagenesis were provided by MWG Operon (Acton, UK). Template DNA was digested with DpnI to leave only the newly synthesized mutated plasmid, and sequencing was carried out to confirm the introduction of the alterations.
as §2

[4] = target: T6, GPR84 in LPS-treated THP-1 cells (Homo sapiens, UniProt Q9NQS5); test: [^35S]GTPγS binding assay, membranes of LPS-treated THP-1 cells; type: biochemical; conditions: LPS-treated THP-1 membranes
T6 construct: GPR84 expressed endogenously in human-derived cell lines and tissue; endogenous in cells; host or cells: THP-1 cells, 100 ng/mL LPS for 24 h, membranes
T6 sequence (Q9NQS5 whole entry): as the sequence (Q9NQS5 whole entry, the tested form may be a part) above

[5] = target: T1, human GPR84-Gαi2 fusion protein; test: cAMP assay in Flp-In TREx 293 cells expressing human GPR84-Gαi2; type: cell-based
Protocol: cAMP experiments were performed using Flp-In T-REx293 cells induced to express the receptor of interest or CHO-K1 cells stably expressing the orthologue of interest. Experiments were carried out using a homogeneous time-resolved FRET-based detection kit (CisBio, Codolet, France) according to the manufacturer’s protocol. For the assay cells were plated at 5000 cells/well in low-volume 384-well plates. The ability of agonists to inhibit 1 μM forskolin-induced cAMP production was assessed following a preincubation for 15 min with antagonist compounds, then a further 30 min incubation with agonist compounds. Reactions were stopped according to the manufacturer’s instructions and the output was measured with a PHERAstar FS plate reader (BMG Labtech, Aylesbury, UK).

GPR84 in RAW264.7 cells = GPR84 in RAW264.7 cells (Mus musculus, UniProt Q8CIM5); test: [^35S]GTPγS binding assay, membranes of RAW264.7 cells; conditions: RAW264.7 membranes
Sequence of GPR84 in RAW264.7 cells (Q8CIM5 whole entry): as the sequence (Q8CIM5 whole entry) above

[6] = system: Thr^102Ala, Ser^363Gly mouse GPR84; test: [^35S]GTPγS binding assay, Thr102Ala-Ser363Gly mouse GPR84 mutant; type: biochemical
Protocol: as §3, §2

[7] = target: T7, ECL3/TM7 chimeric human/mouse GPR84 (Mus musculus, UniProt Q8CIM5, G345V/R346Q/S363G/V354L); test: Antagonism of 2-HTP at ECL3/TM7 human/mouse GPR84 chimera in Flp-In TREx 293 cells; type: cell-based
T7 construct: expressed in transfected cells; host or cells: Flp-In TREx 293 cells
T7 sequence (Q8CIM5 whole entry G345V/R346Q/V354L/S363G): as the sequence (Q8CIM5 whole entry) above, with G345V, R346Q, V354L, S363G counted along it
Text: (§4) Chimeric human-mouse GPR84-HA constructs were generated using synthetic DNA sequences purchased from Eurofins Genomics (Luxembourg), that were then subcloned in-frame into the BamH1 and Xho1 sites of pcDNA5/FRT/TO.

Humanized mGPR84 = target: T8, Humanized mGPR84 (Homo sapiens, UniProt Q9NQS5, A294V/A296R/A298P/D231Q/D276G/G248R/H223R/H226Q/I278G/I301T/K216G/K284Q/K289R/K302A/L245V/M286I/N225H/N279I/P291L/P300E/P308T/Q210R/Q299R/Q379H/Q48R/R218H/R229G/R237H/R244G/R282A/R390Q/S280R/S295H/S310A/S311P/V274A); test: Antagonism of 2-HTP at humanized mGPR84 chimera in Flp-In TREx 293 cells; type: cell-based; conditions: all ECL and TMD residues human in mouse backbone
T8 construct: expressed in transfected cells; host or cells: Flp-In TREx 293 cells
T8 sequence (Q9NQS5 with tags, fused parts or gaps with the stated changes): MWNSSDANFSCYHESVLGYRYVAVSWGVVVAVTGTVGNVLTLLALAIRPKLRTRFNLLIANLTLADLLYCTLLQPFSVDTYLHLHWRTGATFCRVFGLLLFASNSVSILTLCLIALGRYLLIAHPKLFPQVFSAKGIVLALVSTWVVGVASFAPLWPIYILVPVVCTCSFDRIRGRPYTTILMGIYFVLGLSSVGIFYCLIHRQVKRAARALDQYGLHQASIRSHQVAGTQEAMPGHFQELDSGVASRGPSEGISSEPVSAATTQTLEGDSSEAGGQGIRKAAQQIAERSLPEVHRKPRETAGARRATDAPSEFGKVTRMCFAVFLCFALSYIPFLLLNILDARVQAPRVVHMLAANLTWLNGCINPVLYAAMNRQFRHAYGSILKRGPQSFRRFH
Text: as §4

[8] = system: mouse GPR84-Gαi2 fusion protein; test: [^3H]140 binding assay, membranes expressing mouse GPR84-Gαi2
Protocol: (§5) Binding was initiated by the addition of membranes (5 μg of protein per tube). All assays were performed at 25 °C for 1 h before termination by the addition of ice-cold PBS and vacuum filtration through GF/C glassfibre filter-bottom 96-well microplates. Plates were washed three times with ice-cold PBS then allowed to dry for 2–3 h at room temperature. MicroScint-20 was added to dried filter plates, and radioactivity was quantified by liquid scintillation spectrometry. Specific binding was defined as the difference between binding detected in the presence and absence of 10 μM compound 020.
All data are presented as means ± SEM of at least three independent experiments. Data analysis and curve fitting was carried out using the GraphPad Prism software package version 8 (GraphPad, San Diego). For functional assays the concentration–response data were plotted on a log axis, with the untreated vehicle control plotted at 1 log unit lower than the lowest ligand concentration and fitted to a three parameter sigmoidal curve with the Hill slope constrained to equal 1. In case of inhibition experiments with antagonists, an equivalent analysis was followed to fit an inverse sigmoidal curve. To perform the statistical analysis of curve parameters, data from multiple experiments were fitted independently and resulting curve fit values were analyzed with indicated tests. […]

[9] = target: T6, GPR84 in LPS-treated THP-1 cells; test: [^3H]140 binding assay, membranes of LPS-treated THP-1 cells; conditions: LPS-treated THP-1 membranes
Protocol: as §1

[10] = system: parental Flp-In TREx 293 cells; test: [^3H]140 binding assay, membranes from parental cells; conditions: parental cell membranes
Protocol: as §5

[11] = system: Ala^102Thr, Gly^363Ser human GPR84; test: [^3H]140 binding assay, Ala102Thr-Gly363Ser human GPR84-Gαi2
Protocol: as §3, §5
All data are presented as means ± SEM of at least three independent experiments. Data analysis and curve fitting was carried out using the GraphPad Prism software package version 8 (GraphPad, San Diego). […] To perform the statistical analysis of curve parameters, data from multiple experiments were fitted independently and resulting curve fit values were analyzed with indicated tests. […]

Structure (SMILES): CC(=O)OCc1ccc(-c2nc(Cc3c[nH]c4ccccc34)nnc2-c2ccccc2)cc1 [Compound 020, 4-(3-((1H-indol-3-yl)methyl)-6-phenyl-1,2,4-triazin-5-yl)benzyl acetate]
pA2 [1]: 9.19 ± 0.10
Gaddum/Schild slope [1]: 1.27 ± 0.03
pA2 ([2]; Gaddum/Schild analysis versus 2-HTP, wild-type mouse GPR84): < 6.0
fold higher concentrations than required to antagonize human GPR84 ([2]; limited effects at mouse GPR84): at least 1000 fold

Structure (SMILES): c1ccc(-c2nnc(Cc3c[nH]c4ccccc34)nc2-c2ccccc2)cc1 [Compound 140, 3-((5,6-Diphenyl-1,2,4-triazin-3-yl)methyl)-1H-indole]
IC50 (macaque GPR84): 0.0064 µM
IC50 (dog GPR84): 0.0081 µM
IC50 (pig GPR84): 0.0056 µM
IC50 (rat GPR84): 8.7 µM
IC50 (mouse GPR84): > 10 µM

Structure (SMILES): c1ccc(-c2nnc(Cc3c[nH]c4ccccc34)nc2-c2ccccc2)cc1 [[^3H]140, [^3H]3-((5,6-diphenyl-1,2,4-triazin-3-yl)methyl)-1H-indole]
specific binding [8]: unable to detect specific binding
Bmax [9]: 905 ± 93 fmol/mg membrane protein
specific binding [10]: no specific binding
direct binding [11]: not possible to measure binding

More lines, main results first:

pA2 [1]: 9.31 ± 0.10
Gaddum/Schild slope [1]: 1.14 ± 0.03
Structure (SMILES): CC(=O)OCc1ccc(-c2nnc(Cc3c[nH]c4ccccc34)nc2-c2ccccc2)cc1 [Compound 021, 4-(3-((1H-indol-3-yl)methyl)-5-phenyl-1,2,4-triazin-6-yl)benzyl acetate]

pA2 [1]: 8.07 ± 0.02
Structure (SMILES): Ic1ccc(-c2nnc(Cc3c[nH]c4ccccc34)nc2-c2ccc(I)cc2)cc1 [Compound 441, 3-((5,6-Bis(4-iodophenyl)-1,2,4-triazin-3-yl)methyl)-1H-indole]

block of activation by 2-HTP [3]: unable to block
fold lower affinity than at wild-type human GPR84 ([3]; from pA2): 380 fold
pA2 ([3]; versus 2-HTP, mean ± SEM n = 3): 6.33 ± 0.15
block of activation promoted by 2-HTP ([1]; EC80 of 2-HTP): fully block
block of activation promoted by 6-OAU ([1]; EC80 of 6-OAU): fully block
pA2 [1]: 8.90 ± 0.08 and 8.9
Gaddum/Schild slope [1]: 1.11 ± 0.04
IC50 ([1]; against an EC80 of embelin): < 0.1 µM
reversal of activation produced by DIM ([1]; allosteric activator DIM): fully reversed
block of inhibition of forskolin-amplified cAMP levels by 2-HTP ([5]; 2-HTP): fully blocked
block of inhibition of forskolin-amplified cAMP levels by 6-OAU ([5]; 6-OAU): fully blocked
block of 2-HTP-induced [^35S]GTPγS binding (GPR84 in RAW264.7 cells): unable to produce such an effect
block of activation by 2-HTP [6]: able to fully block activation by 2-HTP
fold higher affinity than at wild-type mouse GPR84 ([6]; from pA2): at least 5000 fold
fold lower affinity than at wild-type human GPR84 ([6]; from pA2): ~13 fold
pA2 ([6]; versus 2-HTP, mean ± SEM n = 3): 7.78 ± 0.08
IC50 [7]: 0.363 µM
affinity at humanized chimera compared with wild-type human receptor (Humanized mGPR84): equal affinity
Structure (SMILES): COc1ccc(-c2nnc(Cc3c[nH]c4ccccc34)nc2-c2ccc(OC)cc2)cc1 [Compound 837, 3-((5,6-Bis(4-methoxyphenyl)-1,2,4-triazin-3-yl)methyl)-1H-indole]
block of 2-HTP-induced [^35S]GTPγS binding [4]: blocked in a concentration-dependent and high potency manner
antagonism of mouse GPR84 ([2]; EC80 of 2-HTP): no significant capacity to antagonize
affinity (from pA2) ([2]; wild-type mouse GPR84): < 100 μM

— paper PMC8506611, “Discovery and Characterization of Novel Antagonists of the Proinflammatory Orphan Receptor GPR84” (ACS Pharmacology & Translational Science, 2021)
